Experimental data taken from the supplement of paper PMC11451515.

System: NOMO1
Experiment: cell viability relative to DMSO control; higher = less cytotoxic
Conditions: 48 h
Summary of the method: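 Viability values are per-plate percentages of DMSO wells, with background from cell-free wells. Library compounds in DMSO were pin-dosed, in an 11-point threefold series from 47 μM to 0.79 nM, onto NOMO1 or SEM (500 cells/well) or P12-Ichikawa (1000 cells/well) leukemia cells in 1536-well plates (5 μl). Those cells had been adapted for at least four passages in each medium, and CellTiter-Glo One luminescence was read after 48 h at 37°C.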

[1] = HPLM + 10% dialyzed FBS, 0.000781 µM
[2] = HPLM + 10% dialyzed FBS, 0.00234 µM
[3] = HPLM + 10% dialyzed FBS, 0.00702 µM
[4] = HPLM + 10% dialyzed FBS, 0.0211 µM
[5] = HPLM + 10% dialyzed FBS, 0.0632 µM
[6] = HPLM + 10% dialyzed FBS, 0.19 µM
[7] = HPLM + 10% dialyzed FBS, 0.569 µM
[8] = HPLM + 10% dialyzed FBS, 1.71 µM
[9] = HPLM + 10% dialyzed FBS, 5.12 µM
[10] = HPLM + 10% dialyzed FBS, 15.4 µM
[11] = HPLM + 10% dialyzed FBS, 46.1 µM
[12] = RPMI 5 mM glucose + 10% FBS, 0.000781 µM
[13] = RPMI 5 mM glucose + 10% FBS, 0.00234 µM
[14] = RPMI 5 mM glucose + 10% FBS, 0.00702 µM
[15] = RPMI 5 mM glucose + 10% FBS, 0.0211 µM
[16] = RPMI 5 mM glucose + 10% FBS, 0.0632 µM
[17] = RPMI 5 mM glucose + 10% FBS, 0.19 µM
[18] = RPMI 5 mM glucose + 10% FBS, 0.569 µM
[19] = RPMI 5 mM glucose + 10% FBS, 1.71 µM
[20] = RPMI 5 mM glucose + 10% FBS, 5.12 µM
[21] = RPMI 5 mM glucose + 10% FBS, 15.4 µM
[22] = RPMI 5 mM glucose + 10% FBS, 46.1 µM
[23] = RPMI 5 mM glucose + 10% dialyzed FBS, 0.000781 µM
[24] = RPMI 5 mM glucose + 10% dialyzed FBS, 0.00234 µM
[25] = RPMI 5 mM glucose + 10% dialyzed FBS, 0.00702 µM
[26] = RPMI 5 mM glucose + 10% dialyzed FBS, 0.0211 µM
[27] = RPMI 5 mM glucose + 10% dialyzed FBS, 0.0632 µM
[28] = RPMI 5 mM glucose + 10% dialyzed FBS, 0.19 µM
[29] = RPMI 5 mM glucose + 10% dialyzed FBS, 0.569 µM
[30] = RPMI 5 mM glucose + 10% dialyzed FBS, 1.71 µM
[31] = RPMI 5 mM glucose + 10% dialyzed FBS, 5.12 µM
[32] = RPMI 5 mM glucose + 10% dialyzed FBS, 15.4 µM
[33] = RPMI 5 mM glucose + 10% dialyzed FBS, 46.1 µM

| SMILES | cell viability [1] [%] | cell viability [2] [%] | cell viability [3] [%] | cell viability [4] [%] | cell viability [5] [%] | cell viability [6] [%] | cell viability [7] [%] | cell viability [8] [%] | cell viability [9] [%] | cell viability [10] [%] | cell viability [11] [%] | cell viability [12] [%] | cell viability [13] [%] | cell viability [14] [%] | cell viability [15] [%] | cell viability [16] [%] | cell viability [17] [%] | cell viability [18] [%] | cell viability [19] [%] | cell viability [20] [%] | cell viability [21] [%] | cell viability [22] [%] | cell viability [23] [%] | cell viability [24] [%] | cell viability [25] [%] | cell viability [26] [%] | cell viability [27] [%] | cell viability [28] [%] | cell viability [29] [%] | cell viability [30] [%] | cell viability [31] [%] | cell viability [32] [%] | cell viability [33] [%] |
| --- | --- | --- | --- | --- | --- | --- | --- | --- | --- | --- | --- | --- | --- | --- | --- | --- | --- | --- | --- | --- | --- | --- | --- | --- | --- | --- | --- | --- | --- | --- | --- | --- | --- |
| CC(C)C[C@H](NC(=O)CNC(=O)c1cc(Cl)ccc1Cl)B(O)O | 88.3 | 104 | 106 | 33.1 | 125 | 92 | 20.4 | 9.39 | 4.5 | 4.57 | 4.02 | 81.1 | 88.8 | 100 | 16.8 | 104 | 86.2 | 19.7 | 7.24 | 5.18 | 4.14 | 2.67 | 98.5 | 94.2 | 108 | 33.5 | 96.9 | 107 | 28.3 | 8.85 | 5.16 | 4.61 | 2.91 |
| COc1cc2nc(-c3cc(F)ccc3O)nc(N[C@@H]3CNC[C@H]3C(C)(C)O)c2cc1OC | 111 | 115 | 108 | 128 | 93.5 | 122 | 124 | 109 | 109 | 89.4 | 38.4 | 107 | 105 | 108 | 103 | 101 | 115 | 109 | 122 | 114 | 106 | 49.4 | 101 | 97.8 | 100 | 118 | 106 | 112 | 112 | 96.6 | 99.6 | 88.4 | 53.7 |
| C[C@H]1[C@@H](C(=O)C[C@H]2O[C@@H]3O[C@]4(C)CC[C@H]5[C@H](C)CC[C@@H]([C@H]2C)[C@@]35OO4)O[C@@H]2O[C@]3(C)CC[C@H]4[C@H](C)CC[C@@H]1[C@@]24OO3 | 114 | 121 | 122 | 102 | 127 | 115 | 116 | 102 | 111 | 67 | 21 | 103 | 117 | 102 | 99.4 | 110 | 110 | 103 | 109 | 105 | 58.4 | 24.8 | 114 | 131 | 105 | 120 | 122 | 107 | 93.9 | 95.2 | 96.2 | 69 | 24.6 |
| COC/1=C/C=C2\C(=C/C1=O)[C@H](CCC3=CC(=C(OC)C(=C23)OC)OC)NC(C)=O | 36.2 | 33.8 | 45.9 | 49.8 | 40.4 | 27 | 30.5 | 25.3 | 19.8 | 20 | 10.6 | 23.7 | 20 | 17.1 | 20.2 | 21.5 | 24.3 | 17.9 | 7.99 | 12.5 | 10.8 | 2.76 | 23.7 | 21.5 | 23.3 | 29.1 | 24.9 | 21.3 | 23.5 | 13.1 | 14.3 | 12.8 | 3.31 |
| O=C(Nc1ncc(SCCN2CCCC2)s1)[C@]1(c2ccc([S+](=O)([O-])C3CC3)cc2)C[C@H]1C1CCCCC1 | 111 | 136 | 110 | 123 | 120 | 106 | 105 | 102 | 103 | 70.2 | 5.84 | 125 | 127 | 123 | 111 | 123 | 113 | 107 | 128 | 108 | 104 | 25.1 | 118 | 117 | 118 | 126 | 124 | 111 | 114 | 117 | 110 | 94.2 | 17.4 |
| COCCOc1nc(-c2ccc(Cl)c(Cl)c2)n(-c2ccc(NC(=O)CCl)cc2)n1 | 92.5 | 113 | 110 | 114 | 113 | 115 | 96.6 | 110 | 87.2 | 85 | 107 | 78.3 | 86.9 | 84.4 | 82.7 | 85 | 87.6 | 80.7 | 84.9 | 91.3 | 92.6 | 86.7 | 82.7 | 92.1 | 93.5 | 83.7 | 97.4 | 87.5 | 96.9 | 93.9 | 86.4 | 79.7 | 104 |
| CC[C@H](C)C(=O)O[C@H]1C[C@H](O)\C=C2\C=C/[C@H](C)[C@H](CC[C@@H](O)C[C@@H](O)CC(O)=O)[C@@H]12 | 123 | 116 | 118 | 119 | 125 | 123 | 110 | 101 | 103 | 104 | 84.1 | 114 | 111 | 118 | 106 | 117 | 126 | 116 | 116 | 104 | 105 | 102 | 105 | 110 | 117 | 104 | 101 | 110 | 112 | 101 | 103 | 107 | 99 |
| O=C(O)CCn1c2c(c3ccccc31)C[C@H](N[S+](=O)([O-])c1ccc(F)cc1)CC2 | 115 | 112 | 120 | 124 | 113 | 109 | 104 | 105 | 116 | 88.3 | 72.2 | 102 | 105 | 108 | 98.2 | 114 | 99 | 99.2 | 98.7 | 94.2 | 102 | 90.5 | 99.2 | 107 | 120 | 102 | 95.8 | 102 | 109 | 98.1 | 103 | 91.8 | 85.9 |
| COc1cccc([C@@H](C)NCCCc2ccccc2Cl)c1 | 83 | 104 | 83.2 | 111 | 91.5 | 113 | 95.6 | 110 | 103 | 95.9 | 110 | 84.4 | 86.1 | 87.2 | 97.5 | 93.9 | 88 | 94.7 | 86.1 | 94.8 | 94.6 | 101 | 86.2 | 100 | 92.3 | 84.4 | 100 | 101 | 87.9 | 90 | 111 | 106 | 104 |
| NC(=O)C1CCCc2c1[nH]c1ccc(Cl)cc21 (stereo not given) | 111 | 129 | 121 | 117 | 123 | 117 | 105 | 87.6 | 57.4 | 24.2 | 7.26 | 117 | 121 | 123 | 105 | 105 | 123 | 115 | 109 | 81.4 | 21.4 | 9.96 | 107 | 121 | 111 | 129 | 119 | 116 | 110 | 116 | 85.5 | 24.3 | 12 |
| c1ccc(CNc2nc(N3CCOc4ccccc43)nc3c2CCCC3)cc1 | 78.1 | 97.2 | 110 | 103 | 110 | 93.4 | 103 | 111 | 107 | 100 | 97.8 | 100 | 97.7 | 109 | 94.9 | 99.9 | 106 | 106 | 107 | 106 | 110 | 90.2 | 102 | 103 | 112 | 105 | 112 | 111 | 114 | 109 | 109 | 97.6 | 98.8 |
| O=C\1N(N\C=C1[N]2C=CN=N2)C3=NC=NC(=C3)N4CCOCC4 | 81.9 | 84.5 | 82 | 83.9 | 25.7 | 25.8 | 26.3 | 23.8 | 28.3 | 28.4 | 26.6 | 71.2 | 83.9 | 82.7 | 87.8 | 71 | 16.8 | 12.8 | 14.9 | 15.6 | 14.2 | 16.5 | 70.9 | 79.4 | 81.5 | 88.9 | 72.9 | 29.9 | 14.4 | 19.6 | 18.6 | 19.4 | 18.8 |
| Nc1nc(N)c2nc(-c3cccc(O)c3)c(-c3cccc(O)c3)nc2n1 | 124 | 135 | 110 | 128 | 116 | 126 | 123 | 108 | 79.6 | 47.8 | 17 | 106 | 115 | 102 | 116 | 112 | 117 | 105 | 111 | 91.6 | 90.6 | 4.68 | 119 | 106 | 107 | 112 | 114 | 110 | 105 | 108 | 96.7 | 78.5 | 42.2 |
| Cc1cnc(C(=O)O)c[n+]1[O-] | – | – | – | – | – | – | – | – | – | – | – | 109 | 122 | 110 | 127 | 129 | 115 | 101 | 118 | 105 | 103 | 112 | – | – | – | – | – | – | – | – | – | – | – |
